According to ChEMBL document CHEMBL3885881, “DrugMatrix”:

Organism: Rattus norvegicus
Assay: DrugMatrix - Regimen: Daily Repeat
Format: toxicity, organism-based, Sprague-Dawley
Parameters: regimen Daily Repeat, gender Male, age 6-8 weeks
Conditions: in vivo, sc, 1500 mg/kg, route subcutaneous, dose level High, […]; for ABSOLUTE BASOPHIL / ABSOLUTE EOSINOPHIL / ABSOLUTE LYMPHOCYTE / ABSOLUTE MONOCYTE / ABSOLUTE SEGMENTED NEUTROPHIL / BASOPHIL / EOSINOPHIL / ERYTHROCYTE COUNT / HEMATOCRIT / HEMOGLOBIN / LEUKOCYTE COUNT / LYMPHOCYTE / MEAN CORPUSCULAR HEMOGLOBIN / MEAN CORPUSCULAR HEMOGLOBIN CONCENTRATION / MEAN CORPUSCULAR VOLUME / MONOCYTE / NEUTROPHIL / NUCLEATED RED BLOOD CELLS / PLATELET COUNT: tissue Blood; for ALANINE AMINOTRANSFERASE / ALBUMIN / ALKALINE PHOSPHATASE / ASPARTATE AMINOTRANSFERASE / BLOOD UREA NITROGEN / CARBON DIOXIDE / CHLORIDE / CHOLESTEROL / CREATINE PHOSPHOKINASE / CREATININE / GLUCOSE / LACTATE DEHYDROGENASE / LIPASE / PHOSPHORUS / POTASSIUM / SODIUM / TOTAL BILIRUBIN / TOTAL PROTEIN / URIC ACID: tissue Plasma

SMILES: Clc1ccc(CO/N=C(\Cn2ccnc2)c2ccc(Cl)cc2Cl)c(Cl)c1 [OXICONAZOLE]
- ABSOLUTE BASOPHIL (72 h, time 3 day): 0 CELLS/uL
- ABSOLUTE EOSINOPHIL (72 h, time 3 day): 0 CELLS/uL
- ABSOLUTE LYMPHOCYTE (72 h, time 3 day): 11731.33 CELLS/uL
- ABSOLUTE MONOCYTE (72 h, time 3 day): 603.33 CELLS/uL
- ABSOLUTE SEGMENTED NEUTROPHIL (72 h, time 3 day): 4732 CELLS/uL
- BASOPHIL (72 h, time 3 day): 0%
- EOSINOPHIL (72 h, time 3 day): 0%
- ERYTHROCYTE COUNT (72 h, time 3 day): 4.99 x10E6/uL
- HEMATOCRIT (72 h, time 3 day): 31.07%
- HEMOGLOBIN (72 h, time 3 day): 12.4 G/DL
- LEUKOCYTE COUNT (72 h, time 3 day): 17.07 x10E3/uL
- LYMPHOCYTE (72 h, time 3 day): 69.67%
- MEAN CORPUSCULAR HEMOGLOBIN (72 h, time 3 day): 24.97 pg
- MEAN CORPUSCULAR HEMOGLOBIN CONCENTRATION (72 h, time 3 day): 39.93 G/DL
- MEAN CORPUSCULAR VOLUME (72 h, time 3 day): 62.43 fL
- MONOCYTE (72 h, time 3 day): 3.67%
- NEUTROPHIL (72 h, time 3 day): 26.67%
- NUCLEATED RED BLOOD CELLS (72 h, time 3 day): 0 /100WBC
- PLATELET COUNT (72 h, time 3 day): 1249.67 x10E3/uL
- ALANINE AMINOTRANSFERASE (72 h, time 3 day): 40.33 u/L
- ALBUMIN (72 h, time 3 day): 3.03 G/DL
- ALKALINE PHOSPHATASE (72 h, time 3 day): 327 u/L
- ASPARTATE AMINOTRANSFERASE (72 h, time 3 day): 65.67 u/L
- BLOOD UREA NITROGEN (72 h, time 3 day): 12.33 mg/dL
- CARBON DIOXIDE (72 h, time 3 day): 22.33 mmol/L
- CHLORIDE (72 h, time 3 day): 98.67 MEQ/L
- CHOLESTEROL (72 h, time 3 day): 62.67 mg/dL
- CREATINE PHOSPHOKINASE (72 h, time 3 day): 173 u/L
- CREATININE (72 h, time 3 day): 0.17 mg/dL
- GLUCOSE (72 h, time 3 day): 131 mg/dL
- LACTATE DEHYDROGENASE (72 h, time 3 day): 217 u/L
- LIPASE (72 h, time 3 day): 9 u/L
- PHOSPHORUS (72 h, time 3 day): 12.47 mg/dL
- POTASSIUM (72 h, time 3 day): 6.61 MEQ/L
- SODIUM (72 h, time 3 day): 143.17 MEQ/L
- TOTAL BILIRUBIN (72 h, time 3 day): 0.1 mg/dL
- TOTAL PROTEIN (72 h, time 3 day): 6.03 G/DL
- URIC ACID (72 h, time 3 day): 1.7 mg/dL
- ABSOLUTE BASOPHIL (120 h, time 5 day): 0 CELLS/uL
- ABSOLUTE EOSINOPHIL (120 h, time 5 day): 0 CELLS/uL
- ABSOLUTE LYMPHOCYTE (120 h, time 5 day): 17693 CELLS/uL
- ABSOLUTE MONOCYTE (120 h, time 5 day): 655 CELLS/uL
- ABSOLUTE SEGMENTED NEUTROPHIL (120 h, time 5 day): 5318.67 CELLS/uL
- BASOPHIL (120 h, time 5 day): 0%
- EOSINOPHIL (120 h, time 5 day): 0%
- ERYTHROCYTE COUNT (120 h, time 5 day): 5.09 x10E6/uL
- HEMATOCRIT (120 h, time 5 day): 30.4%
- HEMOGLOBIN (120 h, time 5 day): 12.37 G/DL
- LEUKOCYTE COUNT (120 h, time 5 day): 23.67 x10E3/uL
- LYMPHOCYTE (120 h, time 5 day): 76.67%
- MEAN CORPUSCULAR HEMOGLOBIN (120 h, time 5 day): 24.3 pg
- MEAN CORPUSCULAR HEMOGLOBIN CONCENTRATION (120 h, time 5 day): 40.7 G/DL
- MEAN CORPUSCULAR VOLUME (120 h, time 5 day): 59.73 fL
- MONOCYTE (120 h, time 5 day): 3%
- NEUTROPHIL (120 h, time 5 day): 20.33%
- NUCLEATED RED BLOOD CELLS (120 h, time 5 day): 0.33 /100WBC
- PLATELET COUNT (120 h, time 5 day): 1767.33 x10E3/uL
- ALANINE AMINOTRANSFERASE (120 h, time 5 day): 33.33 u/L
- ALBUMIN (120 h, time 5 day): 2.7 G/DL
- ALKALINE PHOSPHATASE (120 h, time 5 day): 254.33 u/L
- ASPARTATE AMINOTRANSFERASE (120 h, time 5 day): 66.33 u/L
- BLOOD UREA NITROGEN (120 h, time 5 day): 16.67 mg/dL
- CARBON DIOXIDE (120 h, time 5 day): 24.33 mmol/L
- CHLORIDE (120 h, time 5 day): 103.33 MEQ/L
- CHOLESTEROL (120 h, time 5 day): 55.67 mg/dL
- CREATINE PHOSPHOKINASE (120 h, time 5 day): 192.33 u/L
- CREATININE (120 h, time 5 day): 0.13 mg/dL
- GLUCOSE (120 h, time 5 day): 142.33 mg/dL
- LACTATE DEHYDROGENASE (120 h, time 5 day): 225.33 u/L
- LIPASE (120 h, time 5 day): 7.67 u/L
- PHOSPHORUS (120 h, time 5 day): 11.27 mg/dL
- POTASSIUM (120 h, time 5 day): 6.81 MEQ/L
- SODIUM (120 h, time 5 day): 144.57 MEQ/L
- TOTAL BILIRUBIN (120 h, time 5 day): 0.1 mg/dL
- TOTAL PROTEIN (120 h, time 5 day): 5.87 G/DL
- URIC ACID (120 h, time 5 day): 1.87 mg/dL
